# Reference: article PMC3183312 (European journal of medicinal chemistry, 2011)
# System: not listed separately
# Test: Chemical stability analysis in acidic conditions with HPLC monitoring
# Assay type: physicochemical
# Settings: 1% HCl/MeOH/rt; peak area percentage by HPLC; preliminary
row,SMILES,Purity (area %) Reaction Time = 1 min [%]
1,"Cc1cc(=O)oc2c3c(ccc12)OC(C)(C)[C@H](OC(=O)[C@@]12CC[C@@](C)(C(=O)O1)C2(C)C)[C@@H]3OC(=O)[C@@]12CC[C@@](C)(C(=O)O1)C2(C)C [Compound 2, 4-methyl-DCK]",100
2,Cc1cc(=O)oc2c(COC(=O)[C@@]34CC[C@@](C)(C(=O)O3)C4(C)C)c(OC(C)C)ccc12 [Compound 7],100
3,"CCc1cc(=O)c2ccc3c(c2o1)[C@@H](OC(=O)C12CCC(C)(C(=O)O1)C2(C)C)[C@@H](OC(=O)C12CCC(C)(C(=O)O1)C2(C)C)C(C)(C)O3 (stereo partly drawn) [Compound 4, 2-ethyl DCP]",100
4,"Cc1cc(=O)oc2c(COC(=O)[C@@]34CC[C@@](C)(C(=O)O3)C4(C)C)c(SC(C)C)ccc12 [Compound 32, 4′-((−)-Camphanoyloxymethyl)-7-(isopropylthio)-4-methyl-2H-chromen-2-one]",100
5,"CCc1cc(=O)c2ccc(OC(C)C)c(COC(=O)C34CCC(C)(C(=O)O3)C4(C)C)c2o1 (stereo not drawn) [Compound 12, 4′-((−)-Camphanoyloxymethyl)-2-ethyl-7-isopropoxy-4H-chromen-4-one]",100

# System: HIV-1NL4-3
# Test: HIV-1 infectivity assay, single cycle infection, Luc reporter in TZM-bl cells
# Assay type: cell-based
# Settings: HIV-1NL4-3 in TZM-bl cells, discussion of Table 2
row,SMILES,anti-HIV activity (in words)
1,"CCc1cc(=O)c2ccc(OCc3cc(OC)cc(OC)c3)c(COC(=O)C34CCC(C)(C(=O)O3)C4(C)C)c2o1 (stereo not drawn) [Compound 25, 4′-((−)-Camphanoyloxymethyl)-7-(3,5-dimethoxybenzyloxy)-2-ethyl-4H-chromen-4-one]",very weak anti-HIV activity
2,"CCc1cc(=O)c2ccc(OC3CCOC3=O)c(COC(=O)[C@@]34CCC(C)(C(=O)O3)C4(C)C)c2o1 (stereo partly drawn) [Compound 16, 4′-((−)-Camphanoyloxymethyl)-2-ethyl-7-(2-oxo-tetrahydrofuran-3-yloxy)-4H-chromen-4-one]",lost all activity
3,"CCc1cc(=O)c2ccc(OCc3cccc(C(F)(F)F)c3)c(COC(=O)[C@@]34CCC(C)(C(=O)O3)C4(C)C)c2o1 [Compound 20, 4′-((−)-Camphanoyloxymethyl)-2-ethyl-7-(3-(trifluoromethyl)benzyloxy)-4H-chromen-4-one]",lost all activity
4,"CCc1cc(=O)c2ccc(OCc3cc(OC)c(OC)cc3[N+](=O)[O-])c(COC(=O)[C@@]34CCC(C)(C(=O)O3)C4(C)C)c2o1 [Compound 28, 4′-((−)-Camphanoyloxymethyl)-7-(4,5-dimethoxy-2-nitrobenzyloxy)-2-ethyl-4H-chromen-4-one]",lost all activity
